Measurements from article PMC6132360 (Clinical and Translational Science, 2018).
Like-named read-outs stand apart in the source and are kept apart here.

What was measured:
[1] = target: T1, UGT2B17 (Homo sapiens, UniProt O75795); type: in vitro ADME; conditions: scaled by absolute UGT2B abundance in the intestine
T1 sequence (O75795 24-530): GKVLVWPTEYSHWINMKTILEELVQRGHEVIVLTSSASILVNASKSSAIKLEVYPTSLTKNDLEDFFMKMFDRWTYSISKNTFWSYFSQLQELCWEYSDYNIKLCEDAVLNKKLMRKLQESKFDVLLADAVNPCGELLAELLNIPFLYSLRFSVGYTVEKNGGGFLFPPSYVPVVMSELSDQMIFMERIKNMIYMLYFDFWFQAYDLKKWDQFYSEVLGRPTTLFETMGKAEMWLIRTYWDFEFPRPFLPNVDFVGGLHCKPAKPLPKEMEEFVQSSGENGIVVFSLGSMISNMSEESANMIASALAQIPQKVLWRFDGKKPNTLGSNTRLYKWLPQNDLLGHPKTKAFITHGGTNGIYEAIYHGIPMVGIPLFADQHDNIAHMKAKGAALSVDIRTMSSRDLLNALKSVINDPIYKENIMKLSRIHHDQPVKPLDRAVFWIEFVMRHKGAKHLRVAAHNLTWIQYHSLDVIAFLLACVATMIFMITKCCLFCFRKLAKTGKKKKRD

[2] = for AUC0‐24h at T800, fold higher than with T200: 800 mg vs 200 mg oral testosterone
[3] = oral; cited from earlier work
[4] = test system: testosterone production; conditions: normal men, single injection 300 μg/kg subcutaneous; cited from earlier work
[5] = test system: 5‐AR types 1 and 2; assay: Effect of dutasteride on in vitro testosterone metabolism in human hepatocytes; type: cell-based; conditions: 200 nM dutasteride with 50 μM testosterone, 60 minutes; for change in metabolite formation/levels with dutasteride co‐treatment: human hepatocytes
[6] = test system: human hepatocytes; assay: In vitro metabolite formation from testosterone in primary human hepatocyte; type: in vitro ADME
[7] = target: UGT2B7 (Homo sapiens, UniProt P16662); conditions: scaled by absolute UGT2B abundance in the liver
Sequence of UGT2B7 (P16662 24-529): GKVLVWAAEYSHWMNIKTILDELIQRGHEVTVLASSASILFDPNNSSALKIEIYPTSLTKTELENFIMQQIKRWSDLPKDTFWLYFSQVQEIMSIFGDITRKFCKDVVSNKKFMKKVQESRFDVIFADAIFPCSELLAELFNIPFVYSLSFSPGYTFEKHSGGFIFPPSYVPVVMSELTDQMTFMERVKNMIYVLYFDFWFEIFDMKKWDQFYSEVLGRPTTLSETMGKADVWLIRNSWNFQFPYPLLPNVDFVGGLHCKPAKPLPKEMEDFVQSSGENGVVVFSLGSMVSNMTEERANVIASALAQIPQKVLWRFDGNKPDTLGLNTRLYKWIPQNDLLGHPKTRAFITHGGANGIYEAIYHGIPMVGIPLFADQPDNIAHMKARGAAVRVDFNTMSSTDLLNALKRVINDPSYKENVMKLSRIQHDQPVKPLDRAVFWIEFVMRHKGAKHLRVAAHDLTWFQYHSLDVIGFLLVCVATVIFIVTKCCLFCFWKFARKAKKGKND

## C[C@]12CC[C@@H](O)C[C@H]1CC[C@@H]1[C@@H]2CC[C@]2(C)C(=O)CC[C@@H]12 [Etio, etiocholanolone]
[1]
  predicted contribution of UGT2B17 to intestinal glucuronidation: 90%
[2]
  circulating levels higher in T200+D and T800+D as compared with testosterone alone: 2.3 fold

## C[C@]12CC[C@H]3[C@@H](CCC4=CC(=O)CC[C@@]43C)[C@@H]1CC[C@@H]2O [Testosterone, reference compound]
[1]
  predicted contribution of UGT2B17 to intestinal glucuronidation: 100%
[3]
  bioavailability: 2–8%

## acyline
[4]
  duration of suppression of testosterone production: ≥ 15 days

## C[C@]12CCC(=O)C[C@@H]1CC[C@@H]1[C@@H]2CC[C@]2(C)[C@@H](O)CC[C@@H]12 [DHT, dihydrotestosterone]
[5]
  change in metabolite formation/levels with dutasteride co‐treatment: significant decreases
[2]
  AUC0‐24h at T800, fold higher than with T200: 3.3 fold
[2]; male, human, in vivo, 800 mg, T800
  Tmax: 2 h
[2]; male, human, in vivo, AUC0–24h, T800+D, average, n = 7
  AUC(0-t): 0.0266 µM·h
[2]; male, human, in vivo, T200+D
  Tmax: 4 h

## C[C@]12CCC(=O)C=C1CC[C@@H]1[C@@H]2CC[C@]2(C)C(=O)CC[C@@H]12 [AED, androstenedione]
[5]
  change in metabolite formation/levels with dutasteride co‐treatment: No significant changes
[6]
  in vitro formation from testosterone: 46%
[2]
  AUC0‐24h at T800, fold higher than with T200: 4.2 fold
  circulating levels higher in T200+D and T800+D as compared with testosterone alone: 5.7 fold
[2]; male, human, in vivo, 200 mg, T200
  Tmax: 2 h
[2]; male, human, in vivo, T200+D
  Tmax: 2 h

## C[C@]12CC[C@@H](O)C[C@@H]1CC[C@@H]1[C@@H]2CC[C@]2(C)C(=O)CC[C@@H]12 [A, androsterone]
[5]
  change in metabolite formation/levels with dutasteride co‐treatment: significant decreases
[1]
  predicted contribution of UGT2B17 to intestinal glucuronidation: 70%
[7]
  predicted contribution of UGT2B7 to hepatic glucuronidation: 100%

## C[C@]12CC[C@H]3[C@@H](C[C@@H](O)C4=CC(=O)CC[C@@]43C)[C@@H]1CC[C@@H]2O [6β‐OH‐T, 6β‐hydroxytestosterone]
[5]
  change in metabolite formation/levels with dutasteride co‐treatment: significant decreases
[2]; after oral testosterone
  detection in serum: only detectable in a few samples

## C[C@]12C=CC(=O)N[C@@H]1CC[C@@H]1[C@@H]2CC[C@]2(C)[C@@H](C(=O)Nc3cc(C(F)(F)F)ccc3C(F)(F)F)CC[C@@H]12 [dutasteride, reference compound]
[5]
  inhibition of 5‐AR types 1 and 2 mediated metabolism of testosterone: complete inhibition
